Assay results: PubChem BioAssay (NCI)
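Where inhibition never reached the appropriate level, the endpoint shown equals the highest concentration tested. Otherwise, values were interpolated linearly from a five-concentration, 48-hour dose response in 96-well plates. Abbreviation: GI50, concentration required for 50% inhibition of growth. TGI denotes the concentration required for complete inhibition of growth.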

Tests used:
Experiment in all cases: NCI anticancer screen, dose series, 48 h
[1] = tested on: OVCAR-4 ovarian
[2] = tested on: M14 melanoma
[3] = tested on: NCI/ADR-RES ovarian
[4] = tested on: BT-549 breast
[5] = tested on: SF-268 CNS
[6] = tested on: DU-145 prostate
[7] = tested on: HCC-2998 colon
[8] = tested on: NCI-H226 lung
[9] = tested on: OVCAR-5 ovarian
[10] = tested on: SK-MEL-5 melanoma
[11] = tested on: MDA-MB-468 breast
[12] = tested on: HCT-15 colon
[13] = tested on: T-47D breast
[14] = tested on: HT29 colon
[15] = tested on: OVCAR-8 ovarian
[16] = tested on: SN12C renal
[17] = tested on: COLO 205 colon
[18] = tested on: SF-539 CNS
[19] = tested on: MOLT-4 leukemia
[20] = tested on: 786-0 renal
[21] = tested on: U251 CNS
[22] = tested on: SR leukemia
[23] = tested on: HCT-116 colon
[24] = tested on: SNB-19 CNS
[25] = tested on: UO-31 renal
[26] = tested on: NCI-H23 lung
[27] = tested on: PC-3 prostate
[28] = tested on: UACC-62 melanoma
[29] = tested on: IGROV1 ovarian
[30] = tested on: HOP-92 NSCLC

CCN1CCN(c2ccc(NC(=O)Nc3ccc(-c4cc(C(=O)NC(C)C)c5ncccc5n4)cc3)cc2C(F)(F)F)CC1
GI50 [1]: 880 nM
TGI [1]: 2450 nM
GI50 [2]: 723 nM
TGI [2]: 1900 nM
GI50 [3]: 3660 nM
TGI [3]: 10000 nM
GI50 [4]: 4830 nM
TGI [4]: 9570 nM
GI50 [5]: 3560 nM
TGI [5]: 10900 nM
GI50 [6]: 749 nM
TGI [6]: 1580 nM
GI50 [7]: 1440 nM
TGI [7]: 5090 nM
GI50 [8]: 5020 nM
TGI [8]: 12500 nM
GI50 [9]: 1600 nM
TGI [9]: 6090 nM
GI50 [10]: 1410 nM
TGI [10]: 5280 nM
GI50 [11]: 766 nM
TGI [11]: 1850 nM
GI50 [12]: 667 nM
TGI [12]: 1350 nM
GI50 [13]: 1930 nM
TGI [13]: 8740 nM
GI50 [14]: 665 nM
TGI [14]: 1320 nM
GI50 [15]: 5690 nM
TGI [15]: 17500 nM
GI50 [16]: 668 nM
TGI [16]: 1380 nM
GI50 [17]: 931 nM
TGI [17]: 2710 nM
GI50 [18]: 534 nM
TGI [18]: 1020 nM
GI50 [19]: 1110 nM
TGI [19]: 30600 nM
GI50 [20]: 497 nM
TGI [20]: 1030 nM
GI50 [21]: 1240 nM
TGI [21]: 4820 nM
GI50 [22]: 1050 nM
TGI [22]: 12100 nM
GI50 [23]: 638 nM
TGI [23]: 1300 nM
GI50 [24]: 4240 nM
TGI [24]: 9120 nM
GI50 [25]: 2180 nM
TGI [25]: 6810 nM
GI50 [26]: 2050 nM
TGI [26]: 7270 nM
GI50 [27]: 760 nM
TGI [27]: 2100 nM
GI50 [28]: 3990 nM
TGI [28]: 8280 nM
GI50 [29]: 1420 nM
TGI [29]: 5110 nM
GI50 [30]: 3140 nM
